Measured values reported in patent US7943576B2, “Methods of using enterostatin as inhibitor of angiogenesis” (priority 2005, dated 2011).
“Also recorded” adds a separate entry of the source. Read-outs that look alike come from different tables or passages of the source.

Key:
adipose tissue = experiment: in vitro human adipose tissue angiogenesis assay (fat fragments in fibrin clot); assay type: cell-based
Experimental: Tissue Preparation: Discarded fat from human surgery was cut into fragments approximately 1 mm thick and 2 mm in diameter. These fat fragments were placed in 96-well plates loaded with human thrombin solution (0.05 IU in 40 μL double distilled water/well). The fat fragments were placed in the prepared 96-well plates and covered with 100 μl clotting media. The clotting media consisted of fibrinogen (3 mg/ml) (Sigma Chemical Co., St. Louis, Mo.) and ε-amino caproic acid (0.5%) (Sigma Chemical Co., St. Louis, Mo.) in human placental vein angiogenesis model (HPVAM) media. […] The mixture was allowed to clot by incubation in 6% CO2, 94% air at 37° C. in a humidified incubator. After the media had gelled overnight, the fat-containing clot was supplemented with 1 mL HPVAM media containing 20% fetal bovine serum (GibcoBRL, Gaithersburg, Md.). The total volume of each well was 2 mL.
Angiogenic Evaluation: All wells were evaluated for angiogenic sprouting by examination at 40× and 200× magnification by an unbiased observer using an inverted microscope. Angiogenesis was defined by two criteria. First, the number of wells (as a percentage of the total plated) that developed new vessel growth was termed initiation. This was defined by the presence of at least three angiogenic sprouts of approximately 0.5 mm in length growing from the periphery of the fat tissue. The degree of angiogenic response was assessed using a semi-quantitative visual rating scale as described in E. A. Woltering et al., “Development of a novel in vitro human tissue-based angiogenesis assay to evaluate the effect of antiangiogenic drugs,” Ann. Surg., vol. […] The tissue was visually divided into four quadrants. Each quadrant was given a numeric score from 0-4 based on the length and density of the new vessel growth, and on the percentage of the quadrant's circumference involved with the angiogenic response. Numeric results from the four quadrants were summed and expressed as an angiogenic index (AI, 1-16). This rating scale has been validated using multiple independent observers as described in C. Hornick et al., “Inhibition of angiogenic initiation and disruption of newly established human vascular networks by juice of Morinda citrifola (Noni),” Angiogenesis, vol.

[1] = cited from earlier work; for duration of action on feeding: single injection
umbilical veins = experiment: human umbilical vein angiogenesis model; assay type: cell-based
Description: In addition, another angiogenesis model was tried, the human umbilical vein model as described by Woltering et al. (61). This model uses discarded umbilical veins to assay the effect of various compounds on angiogenesis.

HepG2 cells = experiment: microarray gene analysis, HepG2 cells; assay type: cell-based, human; conditions: HepG2 cells (counted together with GT1-7); 60 minutes; 0.01, 0.1 and 1.0 uM; regulated by at least 1.7×
Experimental: (§1) HepG2 cells (a human liver carcinoma cell line) and GT1-7 cells (a neuronal cell line) were cultured by standard procedures and incubated with varying concentrations of enterostatin for 60 minutes. At the completion of the incubation period, cells were lysed, recovered from the plates, and extracted for RNA using TRI REAGENT® (Molecular Research Center, Inc, Cincinnati, Ohio). The RNA was then purified using the RNeasy® Mini Kit (Qiagen, Valencia, Calif.). RNA quality was visually assessed using agarose gel electrophoresis and quantified by UV spectrophotometric analysis (A260 and A280 nm). All RNA had A260/A280 ratios greater than 1.75 and less than 2.10. RNA integrity was checked using an RNA 6000 nano lab chip kit (Agilent Technologies, Foster City, Calif.). […]
(§2) Slides were scanned using a GSI Lumonics ScanArray 5000 laser scanner (Perkin Elmer Life Sciences, Inc., Boston, Mass.) at a relatively low and a relatively high laser intensity and expression data was analyzed using the QuantArray V3.0 software package (Perkin Elmer Life Sciences, Inc.). […]

GT1-7 cells = experiment: microarray gene analysis, GT1-7 cells; assay type: cell-based; conditions: GT1-7 cells (counted together with HepG2); 60 minutes; 0.01, 0.1 and 1.0 uM; regulated by at least 1.7×
Experimental: as §1, §2

[2] = low affinity binding, brain membrane preparation; cited from earlier work
[3] = system: SK-N-MC neuroepithelioma cells; conditions: low affinity binding; cited from earlier work
galanin receptors = conditions: cited from earlier work
[4] = target: T1, Neuropeptide Y1 receptors (Homo sapiens, UniProt P25929); conditions: cited from earlier work
T1 sequence (P25929 1-384): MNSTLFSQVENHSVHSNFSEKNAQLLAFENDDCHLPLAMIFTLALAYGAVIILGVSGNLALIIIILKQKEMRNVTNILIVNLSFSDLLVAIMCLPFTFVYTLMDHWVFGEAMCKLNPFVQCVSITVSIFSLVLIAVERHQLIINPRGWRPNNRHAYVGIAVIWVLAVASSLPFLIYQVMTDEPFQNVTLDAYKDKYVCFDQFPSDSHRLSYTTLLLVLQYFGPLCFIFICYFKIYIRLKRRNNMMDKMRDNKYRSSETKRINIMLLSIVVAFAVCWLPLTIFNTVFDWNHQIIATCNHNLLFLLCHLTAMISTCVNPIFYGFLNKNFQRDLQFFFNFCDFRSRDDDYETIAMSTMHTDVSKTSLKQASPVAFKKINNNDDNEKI

kappa-opioid receptors = kappa-opioid receptors (Homo sapiens, UniProt P41145); conditions: cited from earlier work
[5] = target: T2, cholecystokinin A receptors (Homo sapiens, UniProt P32238); conditions: cited from earlier work
T2 sequence (P32238 1-428): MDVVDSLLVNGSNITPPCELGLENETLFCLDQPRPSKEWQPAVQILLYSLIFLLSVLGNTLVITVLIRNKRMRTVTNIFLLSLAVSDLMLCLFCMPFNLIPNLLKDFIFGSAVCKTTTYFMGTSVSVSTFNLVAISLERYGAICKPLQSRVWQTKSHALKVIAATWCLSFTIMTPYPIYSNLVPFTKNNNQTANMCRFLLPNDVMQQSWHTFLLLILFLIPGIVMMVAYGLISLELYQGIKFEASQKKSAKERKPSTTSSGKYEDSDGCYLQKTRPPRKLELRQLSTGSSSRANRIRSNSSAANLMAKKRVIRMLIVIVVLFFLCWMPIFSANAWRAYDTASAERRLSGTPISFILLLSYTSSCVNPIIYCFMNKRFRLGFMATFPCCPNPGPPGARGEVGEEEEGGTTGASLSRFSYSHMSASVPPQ

[6] = target: beta subunit of ATP synthase (Homo sapiens, UniProt P06576); conditions: cited from earlier work
islet cells = conditions: cited from earlier work
[7] = humans, intravenous injection; cited from earlier work
[8] = occurring mainly into lymphatic system; cited from earlier work
[9] = rats adapted to three-choice macronutrient diet

beta subunit of ATP synthase, sequence (P06576 48-529): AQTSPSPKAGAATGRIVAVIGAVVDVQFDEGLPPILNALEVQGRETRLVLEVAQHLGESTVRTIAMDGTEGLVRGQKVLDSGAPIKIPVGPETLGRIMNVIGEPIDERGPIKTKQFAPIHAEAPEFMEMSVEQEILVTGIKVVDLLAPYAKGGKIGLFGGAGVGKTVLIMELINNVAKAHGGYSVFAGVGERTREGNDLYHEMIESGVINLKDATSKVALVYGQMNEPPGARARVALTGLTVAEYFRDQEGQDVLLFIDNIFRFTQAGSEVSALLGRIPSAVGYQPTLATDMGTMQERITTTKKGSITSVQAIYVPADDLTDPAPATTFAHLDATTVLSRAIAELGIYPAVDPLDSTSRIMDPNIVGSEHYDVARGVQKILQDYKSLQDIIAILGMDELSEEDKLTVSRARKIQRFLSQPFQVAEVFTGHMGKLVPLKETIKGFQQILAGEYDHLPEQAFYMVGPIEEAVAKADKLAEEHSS
kappa-opioid receptors, sequence (P41145 whole entry): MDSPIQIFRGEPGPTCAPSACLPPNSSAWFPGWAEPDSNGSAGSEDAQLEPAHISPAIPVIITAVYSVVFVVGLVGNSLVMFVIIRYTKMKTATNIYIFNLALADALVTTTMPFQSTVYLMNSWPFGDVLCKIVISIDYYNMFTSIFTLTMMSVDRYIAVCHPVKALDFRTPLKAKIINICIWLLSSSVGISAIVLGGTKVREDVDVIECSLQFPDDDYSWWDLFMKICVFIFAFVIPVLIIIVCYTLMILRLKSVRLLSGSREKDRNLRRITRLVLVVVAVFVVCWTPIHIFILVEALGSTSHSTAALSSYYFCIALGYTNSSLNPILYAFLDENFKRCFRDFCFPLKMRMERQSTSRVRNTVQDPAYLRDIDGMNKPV

For APGP-ornithine [reference compound], the “inhibitory effect on the angiogenic index (FIG. 4 legend)” value (adipose tissue) is listed as “lack of an inhibitory effect”, the “inhibition of angiogenesis (FIG. 4)” value (adipose tissue; concentrations from 10^−6 to 10^−9 M) is listed as “none of these concentrations of the metabolite inhibited angiogenesis” and the “food intake in rats” value ([1]; rat, in vivo) is listed as “shown to affect food intake in rats”.

For “enterostatin (VPDPR; printed: Val-Pro-Asp-Pro-Arg) [aminoterminal pentapeptide of procolipase released when procolipase is converted into colipase]”, the “concentration least inhibitory of angiogenesis as measured by the angiogenic index (FIG. 3)” value (adipose tissue) was 10^−10 M, the “new blood vessels (photomicrograph, FIG. 1B vs control FIG. 1A)” value (adipose tissue; 10^−9 M enterostatin) was “fewer new blood vessels than the control tissue” and the angiogenic response (adipose tissue; concentrations from about 10^−6 to about 10^−9 M) was “effectively blocked the angiogenic response”. The “concentration giving the greatest inhibition of angiogenic index (FIG. 2)” value (adipose tissue; day 15, U-shaped dose response curve) was 10^−9 M, the “effect on the angiogenic index (FIG. 2)” value (adipose tissue; range of 10^−8 to 10^−6 M) was “dose dependent inhibition” and the inhibition of angiogenesis (umbilical veins) was “effective in inhibiting angiogenesis”. For the same substance, the “number of genes related to the angiogenesis pathway upregulated or downregulated” value (HepG2 cells) was 22 genes, the “number of genes related to the angiogenesis pathway upregulated or downregulated” value (GT1-7 cells) was 22 genes and the Kd [2] was 0.23 µM. The Kd [3] was 0.04 µM, the “binding to galanin receptors” value (galanin receptors) was “not to bind” and the “binding to Neuropeptide Y1 receptors” value [4] was “not to bind”. For the same substance, the “binding to kappa-opioid receptors” value (kappa-opioid receptors) was “not to bind”, the “binding to cholecystokinin A receptors” value [5] was “not to bind” and the “binding to purified beta subunit of ATP synthase” value [6] was “bind to this purified protein; also recorded: binds to the beta subunit of ATP synthase”. For the same substance, the “insulin secretion from islets” value (islet cells; 10^−9 to 10^−5 M, 16.7 mM glucose, dose-dependent) was “inhibited insulin secretion from islets”, the “insulin secretion from isolated pancreatic islets” value (islet cells; doses of 10^−10 to 10^−6M) was “inhibit insulin secretion” and the “daily intake of dietary fat” value ([1]; chronic icv administration from mini-osmotic pumps, single-choice HF or two-choice HF/LF diet) was “attenuated the daily intake of dietary fat”. For the same substance, the “carbohydrate or protein intake” value [1, 9] was “no effect on either carbohydrate or protein intake”, the “intake of fat macronutrient” value [1, 9] was “reduced intake of the fat macronutrient” and the “duration of action on feeding” value ([1]; rats adapted to a six-hour feeding schedule) was “lasting up to six hours”. The “duration of action on feeding” value ([1]; rats adapted to ad-libitum feeding) was “up to 24 hours”, the “intake of HF vs LF diet” value ([1]; two-choice high-fat and low-fat diet paradigm) was “reduced only intake of the HF diet” and the food intake [7] was “not found to reduce food intake”. For the same substance, the “subjective feeling of hunger” value [7] was “reduce the subjective feeling of hunger” and the “absorption across the intestine” value [8] was “limited and slow”.

In the case of β-casomorphin1-7 [reference compound], the “inhibitory effect on the angiogenic index (FIG. 4 legend)” value (adipose tissue) is listed as “lack of an inhibitory effect”, the “effect on angiogenesis (FIG. 4)” value (adipose tissue; concentrations of 10^−6 and 10^−7 M) is listed as “no effect on angiogenesis” and the “binding to purified beta subunit of ATP synthase” value [6] is listed as “bind to this purified protein”.
